Assay results: patent US20180163250A1, “Screening Broths Comprising Esculatin Compounds for the Detection of Specific Microorganisms” (Neogen Corporation, priority 2016, published 2018)
Structures can show the parent of a compound that is named as a salt.

Legend:
[1] = test system: methicillin resistant staphylococcus aureus strains; assay: Growth and initial color change in MRSA screening broth (LAB588) containing the substrate; type: cell-based; conditions: for Initial color change indicating the presence of MRSA: LAB588 broth with cefoxitin, 100-1000 cfu
Description: (§1) CHE-phosphate, and 3,4-cyclohexenoesculatin diphosphate were dissolved at 200 mg/ml in a 50:50 mixture of dimethylformamide and water. 5-bromo-4-chloroindoxyl phosphate was dissolved at 200 mg/ml in a 50:50 mixture of ethanol and water. The mixtures of compounds were added individually to a MRSA broth (LAB588; Lab M limited) pre-dispensed to 10 ml volumes, after supplementation with cefoxitin selective agent, as 25 μL additions from the prepared stock solutions.
(§2) A 0.5 Macfarlane standard suspension of methicillin resistant staphylococcus aureus strains were prepared from 18-24 h cultures grown in tryptic soy broth (LAB004; Lab M Limited) at 37° C. These were diluted and added to the MRSA broth samples in an amount sufficient to inoculate each sample with 100-1000 colony forming units (cfu). Target concentration was achieved by diluting a culture to a target level and inoculating sets of tubes at different inoculum dilutions so as to achieve the target range. The actual quantity inoculated was confirmed by plating 50 μl of the dilution onto Tryptone soy agar (LAB011) and incubating the plates for 18-24 h at 37° C. and counting the resulting colonies. This information was used to determine which tubes had been inoculated within the target dosing range.
(§3) The broth is designed to selectively indicate a positive presence of MRSA by a yellow color, or a presumptive positive presence of MRSA by an orange color (Table 1). To the CHE-phosphate and 3,4-cyclohexenoesculatin diphosphate was added 50 μL of a 250/mg/ml stock solution of Ferric ammonium citrate and samples were allowed to incubate at ambient temperature for 5 minutes.

[2] = test system: phosphatase activity of methicillin resistant staphylococcus aureus; assay: Blackening after addition of ferric ammonium citrate (free CHE, phosphatase activity) in MRSA broth; type: cell-based; conditions: for blackening after the addition of ferric ammonium citrate indicating the presence of free 3,4-cyclohexenoesculatin: 5 minutes at ambient temperature after FAC; for Color or masking reaction (blackening reaction, dark precipitate): MRSA broth, after ferric ammonium citrate
Description: as §1, §2, §3

Structure (SMILES)	Initial color change indicating the presence of MRSA ([1]; MRSA 3)	Initial color change indicating the presence of MRSA ([1]; MRSA 15)	Initial color change indicating the presence of MRSA ([1]; MRSA 15A (clinical isolate))	Initial color change indicating the presence of MRSA ([1]; MRSA 15B (clinical isolate))	Initial color change indicating the presence of MRSA ([1]; MRSA 15C (clinical isolate))	Initial color change indicating the presence of MRSA ([1]; MRSA 16A (clinical isolate))	Initial color change indicating the presence of MRSA ([1]; MRSA 16B (clinical isolate))	Initial color change indicating the presence of MRSA ([1]; MRSA 16C (clinical isolate))	Inhibition of the growth of MRSA ([1]; MRSA broth LAB588, summary of Table 1)	Initial color change indicating the presence of MRSA ([1]; S. aureus NCTC 12493)	blackening after the addition of ferric ammonium citrate indicating the presence of free 3,4-cyclohexenoesculatin ([2]; MRSA 3)	blackening after the addition of ferric ammonium citrate indicating the presence of free 3,4-cyclohexenoesculatin ([2]; MRSA 15)	blackening after the addition of ferric ammonium citrate indicating the presence of free 3,4-cyclohexenoesculatin ([2]; MRSA 15A (clinical isolate))	blackening after the addition of ferric ammonium citrate indicating the presence of free 3,4-cyclohexenoesculatin ([2]; MRSA 15B (clinical isolate))	blackening after the addition of ferric ammonium citrate indicating the presence of free 3,4-cyclohexenoesculatin ([2]; MRSA 15 C (clinical isolate))	blackening after the addition of ferric ammonium citrate indicating the presence of free 3,4-cyclohexenoesculatin ([2]; MRSA 16A (clinical isolate))	blackening after the addition of ferric ammonium citrate indicating the presence of free 3,4-cyclohexenoesculatin ([2]; MRSA 16B (clinical isolate))	blackening after the addition of ferric ammonium citrate indicating the presence of free 3,4-cyclohexenoesculatin ([2]; MRSA 16 C (clinical isolate))	Color or masking reaction (blackening reaction, dark precipitate) [2]	blackening after the addition of ferric ammonium citrate indicating the presence of free 3,4-cyclohexenoesculatin ([2]; S. aureus NCTC 12493)
O=c1oc2cc(OP(=O)(O)O)c(OP(=O)(O)O)cc2c2c1CCCC2 [Diphosphate, 3,4-cyclohexenoesculatin diphosphate tetra-potassium salt]	Growth (yellow)	Growth (yellow)	Growth (yellow)	Growth (yellow)	Growth (yellow)	Growth (yellow)	Growth (yellow)	Growth (yellow)	not inhibitory	Growth (yellow)	No change	No change	No change	No change	No change	No change	No change	No change	does not produce the same dark precipitate	No change
O=P(O)(O)Oc1c[nH]c2ccc(Br)c(Cl)c12 [Indoxyl phosphate, 5-bromo-4-chloroindoxyl phosphate, reference compound]	Growth (orange)	Growth (orange)	Growth (orange)	Growth (orange)	Growth (orange)	Growth (orange)	Growth (orange)	Growth (orange)		Growth (orange)									no detectable color or masking reaction	
